Values quoted from earlier work, collected in patent publication US20250057795A1 (priority 2023, published 2025).
Read-outs that look alike come from different tables or passages of the source.

Experiments:
[1] = compared with Levodopa; due to increased solubility
GPR143 [2] = biological target: T1, GPR143 (Homo sapiens, UniProt P51810); settings: retinal pigment epithelial cells
GPR143 [3] = biological target: T1, GPR143
GPR143 [4] = biological target: T1, GPR143; settings: same site as L-DOPA

T1 sequence (P51810 whole entry): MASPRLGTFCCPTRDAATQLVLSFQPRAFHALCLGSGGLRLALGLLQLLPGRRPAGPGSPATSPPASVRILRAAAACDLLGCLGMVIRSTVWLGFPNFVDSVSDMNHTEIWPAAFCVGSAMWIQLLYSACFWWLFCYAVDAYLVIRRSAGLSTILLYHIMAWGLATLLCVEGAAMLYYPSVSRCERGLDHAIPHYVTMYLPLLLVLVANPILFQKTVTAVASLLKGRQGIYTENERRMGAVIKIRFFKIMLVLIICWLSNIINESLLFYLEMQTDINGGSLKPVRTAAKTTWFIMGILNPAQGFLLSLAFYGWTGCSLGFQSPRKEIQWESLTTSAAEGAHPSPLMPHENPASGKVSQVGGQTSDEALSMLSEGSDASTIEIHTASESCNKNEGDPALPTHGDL

CCOC(=O)[C@@H](N)Cc1ccc(O)c(O)c1 [Etilevodopa]
ocular penetration [1]: increased ocular penetration

N[C@@H](Cc1ccc(O)c(O)c1)C(=O)O [Levodopa]
release / production of VEGF (and exosomes) (GPR143 [2]): downregulates the production of VEGF | release of PEDF (GPR143 [2]): significantly upregulates | release of PEDF (GPR143 [2]; listed as L-DOPA): stimulated the release of PEDF | need for anti-VEGF injections (GPR143 [3]; continued Levodopa therapy, compared to historical controls): decreased need for anti-VEGF injections | vision (GPR143 [3]; new onset nAMD, naive to anti-VEGF, 1 month): improved vision

COc1ccc2[nH]cc(CCNC(C)=O)c2c1 [Melatonin]
water solubility: practically insoluble

NCCc1ccc(O)c(O)c1 [dopamine]
affinity for GPR143 (GPR143 [4]): near-equal affinity to L-DOPA | release / production of VEGF (and exosomes) (GPR143 [2]): stimulated the release of VEGF and exosomes
